Measured values taken from patent US8952024B2, “Herbicidal pyrimidone derivatives” (E I du Pont de Nemours and Company, priority 2009, dated 2015).

system: Italian ryegrass (Lolium multiflorum); experiment: Test D pre-/postemergence plant response; assay type: in vivo; conditions: Postemergence, 31 g ai/ha; scale 0 to 100
Summary of the method: (§1)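 Seeds were sown in a loam–sand blend and sprayed preemergence with compound in a non-phytotoxic solvent mixture containing surfactant; plants at 2–18 cm (1- to 4-leaf stage) received the same formulation postemergence. After 14 to 21 days in a greenhouse, injury was rated visually against untreated controls (0 = no effect, 100 = complete control).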

Compound | Plant response rating, Ryegrass, Italian
COCCn1c(-c2cccc(F)c2)ncc(C(=O)C2=C(O)C3CCC(C3)C2=O)c1=O (stereo not drawn) [Compound 235] | 5
COCCCn1c(-c2cccc(F)c2)ncc(C(=O)C2=C(O)C3CCC(C3)C2=O)c1=O (stereo not drawn) [Compound 238] | 5
CCCCn1c(-c2cc(F)cc(F)c2)ncc(C(=O)C2=C(O)C3CCC(C3)C2=O)c1=O (stereo not drawn) [Compound 245] | 5

same assay, conditions: Postemergence, 62 g ai/ha; scale 0 to 100 (0 no effect, 100 complete control)

Compound | Plant response rating, Ryegrass, Italian
COCCn1c(-c2cccc(F)c2)ncc(C(=O)C2=C(O)C3CCC(C3)C2=O)c1=O (stereo not drawn) [Compound 235] | 5
COCCCn1c(-c2cccc(F)c2)ncc(C(=O)C2=C(O)C3CCC(C3)C2=O)c1=O (stereo not drawn) [Compound 238] | 5
CCCCn1c(-c2cc(F)cc(F)c2)ncc(C(=O)C2=C(O)C3CCC(C3)C2=O)c1=O (stereo not drawn) [Compound 245] | 5

same assay, conditions: Postemergence, 125 g ai/ha; scale 0 to 100 (0 no effect, 100 complete control)

Compound | Plant response rating, Ryegrass, Italian
COCCn1c(-c2cccc(F)c2)ncc(C(=O)C2=C(O)C3CCC(C3)C2=O)c1=O (stereo not drawn) [Compound 235] | 5
COCCCn1c(-c2cccc(F)c2)ncc(C(=O)C2=C(O)C3CCC(C3)C2=O)c1=O (stereo not drawn) [Compound 238] | 5
CCCCn1c(-c2cc(F)cc(F)c2)ncc(C(=O)C2=C(O)C3CCC(C3)C2=O)c1=O (stereo not drawn) [Compound 245] | 20

same assay, conditions: Postemergence, 250 g ai/ha; scale 0 to 100 (0 no effect, 100 complete control)

Compound | Plant response rating, Ryegrass, Italian
COCCn1c(-c2cccc(F)c2)ncc(C(=O)C2=C(O)C3CCC(C3)C2=O)c1=O (stereo not drawn) [Compound 235] | 35
COCCCn1c(-c2cccc(F)c2)ncc(C(=O)C2=C(O)C3CCC(C3)C2=O)c1=O (stereo not drawn) [Compound 238] | 5
CCCCn1c(-c2cc(F)cc(F)c2)ncc(C(=O)C2=C(O)C3CCC(C3)C2=O)c1=O (stereo not drawn) [Compound 245] | 50

system: purslane (common purslane, Portulaca oleracea); experiment: Test D pre-/postemergence plant response; assay type: in vivo; conditions: Postemergence, 31 g ai/ha; scale 0 to 100
Summary of the method: as §1

Compound | Plant response rating, Purslane
COCCn1c(-c2cccc(F)c2)ncc(C(=O)C2=C(O)C3CCC(C3)C2=O)c1=O (stereo not drawn) [Compound 235] | 60
COCCCn1c(-c2cccc(F)c2)ncc(C(=O)C2=C(O)C3CCC(C3)C2=O)c1=O (stereo not drawn) [Compound 238] | 60
CCCCn1c(-c2cc(F)cc(F)c2)ncc(C(=O)C2=C(O)C3CCC(C3)C2=O)c1=O (stereo not drawn) [Compound 245] | 0

same assay, conditions: Postemergence, 62 g ai/ha; scale 0 to 100 (0 no effect, 100 complete control)

Compound | Plant response rating, Purslane
COCCn1c(-c2cccc(F)c2)ncc(C(=O)C2=C(O)C3CCC(C3)C2=O)c1=O (stereo not drawn) [Compound 235] | 60
COCCCn1c(-c2cccc(F)c2)ncc(C(=O)C2=C(O)C3CCC(C3)C2=O)c1=O (stereo not drawn) [Compound 238] | 60
CCCCn1c(-c2cc(F)cc(F)c2)ncc(C(=O)C2=C(O)C3CCC(C3)C2=O)c1=O (stereo not drawn) [Compound 245] | 5

same assay, conditions: Postemergence, 125 g ai/ha; scale 0 to 100 (0 no effect, 100 complete control)

Compound | Plant response rating, Purslane
COCCn1c(-c2cccc(F)c2)ncc(C(=O)C2=C(O)C3CCC(C3)C2=O)c1=O (stereo not drawn) [Compound 235] | 60
COCCCn1c(-c2cccc(F)c2)ncc(C(=O)C2=C(O)C3CCC(C3)C2=O)c1=O (stereo not drawn) [Compound 238] | 60
CCCCn1c(-c2cc(F)cc(F)c2)ncc(C(=O)C2=C(O)C3CCC(C3)C2=O)c1=O (stereo not drawn) [Compound 245] | 30

same assay, conditions: Postemergence, 250 g ai/ha; scale 0 to 100 (0 no effect, 100 complete control)

Compound | Plant response rating, Purslane
COCCn1c(-c2cccc(F)c2)ncc(C(=O)C2=C(O)C3CCC(C3)C2=O)c1=O (stereo not drawn) [Compound 235] | 70
COCCCn1c(-c2cccc(F)c2)ncc(C(=O)C2=C(O)C3CCC(C3)C2=O)c1=O (stereo not drawn) [Compound 238] | 60
CCCCn1c(-c2cc(F)cc(F)c2)ncc(C(=O)C2=C(O)C3CCC(C3)C2=O)c1=O (stereo not drawn) [Compound 245] | 30
